Measured values taken from patent US20250280828A1, “FUNGICIDAL COMPOSITIONS” (SYNGENTA CROP PROTECTION AG, priority 2020, published 2025).

Tested on: Phakopsora pachyrhizi
Test: Preventative control against Phakopsora pachyrhizi (Asian soybean rust) / soybean / leaf disc
Type: in vivo
Details: foliar, evaluation 11 to 14 days after inoculation, read-out: Combined inhibition (observed); for inhibition at 0.4 g/ha: single active ingredient at 0.4 g/ha; for inhibition at 0.8 g/ha: single active ingredient at 0.8 g/ha
Procedure: Whole soybean plants are treated with the recited compositions of active ingredients four weeks after planting. One day after spraying application leaf discs are cut from the first trifoliate leaf. Five repetitions at each rate are conducted. The leaf discs are inoculated with Phakopsora pachyrhizi one day after treatment. Evaluation of the leaf discs is conducted 11 to 14 days after inoculation and the biological activity is derived from the relation of the treated compared to untreated, infested check plants. The rates of the active ingredients used are given in Tables 1 to 6 as g active ingredient (a.i.)/ha. Results from the tests outlined above are shown below in Tables 1 to 6. […] According to COLBY, in mathematical terms the synergism factor SF corresponds to O/E. In the agricultural practice an SF of […] indicates significant improvement over the purely complementary addition of activities (expected activity), while an SF of ≤0.9 in the practical application routine signals a loss of activity compared to the expected activity.

With `CCC(=O)Oc1c(OC)ccnc1C(=O)N[C@@H](C)C(=O)O[C@@H](C)[C@@H](C)c1ccccc1C` [A.03, [(1S,2S)-1-methyl-2-(o-tolyl)propyl](2S)-2-[(4-methoxy-3-propanoyloxy-pyridine-2-carbonyl)amino]propanoate] the inhibition at 0.2 g/ha (single active ingredient at 0.2 g/ha) was 0%, the inhibition at 0.4 g/ha was 10% and the inhibition at 0.8 g/ha was 42%.
With `CON(Cc1ccc(-c2noc(C(F)(F)F)n2)cc1)C(=O)C1CC1` [B.01, N-methoxy-N-[[4-[5-(trifluoromethyl)-1,2,4-oxadiazol-3-yl]phenyl]methyl]cyclopropanecarboxamide] the inhibition at 0.8 g/ha was 65%.
With `COC(C)C(=O)N(Cc1ccc(-c2noc(C(F)(F)F)n2)cc1)OC` (stereo not shown) [B.02, N,2-dimethoxy-N-[[4-[5-(trifluoromethyl)-1,2,4-oxadiazol-3-yl]phenyl]methyl]propanamide] the inhibition at 0.4 g/ha was 64%.
`CCN(Cc1ccc(-c2noc(C(F)(F)F)n2)cc1)C(=O)C(C)C` [B.03, N-ethyl-2-methyl-N-[[4-[5-(trifluoromethyl)-1,2,4-oxadiazol-3-yl]phenyl]methyl]propanamide] showed an inhibition at 0.4 g/ha of 21% and an inhibition at 0.8 g/ha of 55%.
With `CNC(=O)N(Cc1ccc(-c2noc(C(F)(F)F)n2)cc1)OC` [B.04, 1-methoxy-3-methyl-1-[[4-[5-(trifluoromethyl)-1,2,4-oxadiazol-3-yl]phenyl]methyl]urea] the inhibition at 0.4 g/ha was 44%.
For `CCNC(=O)N(Cc1ccc(-c2noc(C(F)(F)F)n2)cc1)OC` [B.06, 3-ethyl-1-methoxy-1-[[4-[5-(trifluoromethyl)-1,2,4-oxadiazol-3-yl]phenyl]methyl]urea], the inhibition at 0.4 g/ha was 22%.
Work on `CCOC(=O)c1cnn(Cc2ccc(-c3noc(C(F)(F)F)n3)cc2)c1` [B.10, ethyl 1-[[4-[5-(trifluoromethyl)-1,2,4-oxadiazol-3-yl]phenyl]methyl]pyrazole-4-carboxylate] yielded an inhibition at 0.4 g/ha of 55%.
